The values that follow come from patent publication US7115664B2, “Peptidomimetic ligands for cellular receptors and ion channels” (Sepracor Inc., priority 2000, dated 2006).

pIC50: −log10 of the molar value. A value given as a limit tells only on which side of the number the result lay.

In test [1] the target is potassium channel [KA], [KV] or [SKCa]. As to the kind of experiment: Potassium channel receptor binding. To be noted: read-out: K** (IC50). The procedure: (§1) The opioid (μ) receptor binding capabilities of compounds described herein were determined according to the procedures outlined by Wang et al. (FEBS Letters 1994, 338, 217). The sodium channel receptor binding capabilities of compounds described herein were determined according to the procedures outlined by Catterall et al. (J. Biol. Chem. 1981, 256, 8922). The calcium channel receptor binding capabilities of compounds described herein were determined according to the procedures outlined by Gould et al. (Proc. Natl. Acad. Sci. USA 1982, 79, 3656), Ehlert et al. (Life Sci. 1982, 30, 2191), Reynolds et al. (J. Pharmacol. Exp. Ther. 1986, 237, 731), Moresco et al. (Neurobiology of Aging 1990, II, 433) and Schoemaker et al. (Eur. J. Pharmacol. 1985, III, 273). The potassium channel receptor binding capabilities of compounds described herein were determined according to the procedures outlined by Taylor et al. (J. Biol. Chem. 1984, 259, 13957), Rehm et al. (Proc. Natl. Acad. Sci. USA 1988, 85, 4919), Vasquez et al. (J. Biol. Chem. 1990, 265, 15564) and Mourre et al. (Brain Research 1986, 382, 239).

In test [2] the target is opioid (μ) receptor (Homo sapiens, UniProt P35372). As to the kind of experiment: Opioid (μ) receptor binding.
Chain of opioid (μ) receptor (P35372 whole entry): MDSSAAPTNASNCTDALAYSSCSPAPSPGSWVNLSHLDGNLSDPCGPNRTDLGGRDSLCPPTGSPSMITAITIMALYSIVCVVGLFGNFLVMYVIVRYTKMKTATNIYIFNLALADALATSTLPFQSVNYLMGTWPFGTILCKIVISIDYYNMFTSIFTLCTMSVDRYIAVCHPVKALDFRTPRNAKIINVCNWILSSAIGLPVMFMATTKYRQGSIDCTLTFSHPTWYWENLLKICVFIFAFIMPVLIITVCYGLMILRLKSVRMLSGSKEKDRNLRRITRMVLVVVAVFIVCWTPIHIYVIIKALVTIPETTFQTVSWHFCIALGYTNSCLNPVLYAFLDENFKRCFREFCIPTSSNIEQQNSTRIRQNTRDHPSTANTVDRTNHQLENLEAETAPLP
Source text: Another assay useful in the present invention concerns determining the ability of a ligand to bind to a biological receptor utilizing a technique well known in the art referred to as a radioligand binding assay. This assay accurately determines the specific binding of a radioligand to a targeted receptor through the delineation of its total and nonspecific binding components. Total binding is defined as the amount of radioligand that remains following the rapid separation of the radioligand bound in a receptor preparation (cell homogenates or recombinate receptors) from that which is unbound. The nonspecific binding component is defined as the amount of radioligand that remains following separation of the reaction mixture consisting of receptor, radioligand and an excess of unlabeled ligand. Under this condition, the only radioligand that remains represents that which is bound to components other that receptor. The specific radioligand bound is determined by subtracting the nonspecific from total radioactivity bound. For a specific example of radioligand binding assay for μ-opioid receptor, see Wang, J. B. et al. FEBS Letters 1994, 338, 217.
as §1

Test [3] concerns the target sodium channel (site 2). The test is described as follows: Sodium channel receptor binding (site 2). As to conditions: sodium channel site 2 binding; read-out: Na (site 2) (IC50). The procedure: as §1
In test [4] the target is calcium channel (type N) (Rattus norvegicus, UniProt Q02294). The test is described as follows: Calcium channel receptor binding, type N. As to conditions: read-out: Ca (type N) (IC50). The procedure:
as §1

Chain of calcium channel (type N) (Q02294 whole entry): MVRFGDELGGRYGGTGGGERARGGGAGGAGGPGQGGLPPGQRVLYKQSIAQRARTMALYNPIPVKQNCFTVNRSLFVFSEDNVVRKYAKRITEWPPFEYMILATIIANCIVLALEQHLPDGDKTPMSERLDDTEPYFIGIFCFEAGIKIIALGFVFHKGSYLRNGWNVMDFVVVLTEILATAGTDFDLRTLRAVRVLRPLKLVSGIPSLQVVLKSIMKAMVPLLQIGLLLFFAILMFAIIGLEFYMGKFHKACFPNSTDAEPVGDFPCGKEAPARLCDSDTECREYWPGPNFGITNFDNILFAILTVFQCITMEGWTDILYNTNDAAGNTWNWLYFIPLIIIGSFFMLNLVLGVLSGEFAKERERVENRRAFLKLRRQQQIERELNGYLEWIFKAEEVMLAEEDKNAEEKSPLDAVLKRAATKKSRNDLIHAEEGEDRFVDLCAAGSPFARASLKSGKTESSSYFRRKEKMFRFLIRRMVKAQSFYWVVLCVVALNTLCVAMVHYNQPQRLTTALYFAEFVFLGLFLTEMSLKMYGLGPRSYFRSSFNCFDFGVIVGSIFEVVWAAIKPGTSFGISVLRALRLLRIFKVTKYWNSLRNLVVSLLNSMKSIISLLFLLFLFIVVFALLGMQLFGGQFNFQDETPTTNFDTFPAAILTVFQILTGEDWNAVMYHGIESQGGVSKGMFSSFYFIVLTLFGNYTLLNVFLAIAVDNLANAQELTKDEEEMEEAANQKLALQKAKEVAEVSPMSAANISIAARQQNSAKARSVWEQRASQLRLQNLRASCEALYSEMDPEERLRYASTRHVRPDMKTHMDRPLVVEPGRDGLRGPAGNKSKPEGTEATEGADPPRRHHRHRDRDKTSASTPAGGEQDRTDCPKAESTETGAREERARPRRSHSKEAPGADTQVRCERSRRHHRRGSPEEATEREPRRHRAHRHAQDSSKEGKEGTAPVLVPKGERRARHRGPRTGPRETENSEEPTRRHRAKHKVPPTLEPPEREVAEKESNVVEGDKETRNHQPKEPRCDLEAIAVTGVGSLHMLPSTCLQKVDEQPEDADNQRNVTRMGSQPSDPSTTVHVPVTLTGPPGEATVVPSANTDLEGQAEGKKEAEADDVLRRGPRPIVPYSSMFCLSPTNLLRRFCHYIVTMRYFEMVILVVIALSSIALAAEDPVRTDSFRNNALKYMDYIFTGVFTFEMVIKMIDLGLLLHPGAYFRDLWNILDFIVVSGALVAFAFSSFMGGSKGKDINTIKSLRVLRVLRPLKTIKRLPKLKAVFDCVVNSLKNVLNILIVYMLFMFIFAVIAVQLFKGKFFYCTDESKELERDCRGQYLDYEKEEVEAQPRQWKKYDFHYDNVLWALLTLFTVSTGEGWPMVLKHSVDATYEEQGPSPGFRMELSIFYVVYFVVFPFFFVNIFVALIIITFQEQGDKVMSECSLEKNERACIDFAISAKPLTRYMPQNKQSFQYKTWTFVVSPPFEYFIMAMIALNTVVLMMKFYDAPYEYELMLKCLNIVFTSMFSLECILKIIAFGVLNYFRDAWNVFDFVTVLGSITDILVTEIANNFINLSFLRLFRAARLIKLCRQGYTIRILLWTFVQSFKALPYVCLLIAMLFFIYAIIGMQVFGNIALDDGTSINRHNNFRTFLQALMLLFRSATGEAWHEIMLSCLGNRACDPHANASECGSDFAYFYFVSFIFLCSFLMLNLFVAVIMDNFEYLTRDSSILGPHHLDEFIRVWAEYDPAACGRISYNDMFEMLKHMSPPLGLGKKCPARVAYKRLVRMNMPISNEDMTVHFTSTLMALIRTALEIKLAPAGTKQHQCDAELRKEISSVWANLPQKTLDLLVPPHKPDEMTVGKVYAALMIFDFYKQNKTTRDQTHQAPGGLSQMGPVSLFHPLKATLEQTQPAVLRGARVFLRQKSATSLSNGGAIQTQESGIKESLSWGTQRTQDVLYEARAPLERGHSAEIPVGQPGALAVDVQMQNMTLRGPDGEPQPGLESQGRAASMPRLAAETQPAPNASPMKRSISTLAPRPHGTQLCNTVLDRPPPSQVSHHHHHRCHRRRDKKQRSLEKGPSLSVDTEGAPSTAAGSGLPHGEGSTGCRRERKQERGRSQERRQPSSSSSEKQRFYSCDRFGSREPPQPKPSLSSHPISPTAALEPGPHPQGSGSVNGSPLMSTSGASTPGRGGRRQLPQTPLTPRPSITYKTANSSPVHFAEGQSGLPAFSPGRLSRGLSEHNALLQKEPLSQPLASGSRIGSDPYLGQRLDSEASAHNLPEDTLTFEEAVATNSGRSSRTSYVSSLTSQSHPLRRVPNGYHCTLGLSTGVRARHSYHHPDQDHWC
Chain of calcium channel (type N) (P54287 whole entry partner): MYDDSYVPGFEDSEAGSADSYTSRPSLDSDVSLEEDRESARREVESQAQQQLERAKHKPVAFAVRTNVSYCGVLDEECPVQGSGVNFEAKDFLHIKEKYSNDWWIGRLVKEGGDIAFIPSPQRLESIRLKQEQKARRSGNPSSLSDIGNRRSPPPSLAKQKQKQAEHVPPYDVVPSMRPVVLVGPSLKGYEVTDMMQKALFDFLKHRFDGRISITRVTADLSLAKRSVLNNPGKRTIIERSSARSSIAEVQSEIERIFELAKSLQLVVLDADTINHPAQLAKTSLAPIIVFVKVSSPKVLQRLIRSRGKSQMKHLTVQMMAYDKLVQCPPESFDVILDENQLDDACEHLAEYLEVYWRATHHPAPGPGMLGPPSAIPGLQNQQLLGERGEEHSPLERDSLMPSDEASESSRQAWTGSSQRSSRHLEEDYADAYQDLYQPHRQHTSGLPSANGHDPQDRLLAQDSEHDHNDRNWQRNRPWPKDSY
Chain of calcium channel (type N) (P54290 25-944 partner limits assumed): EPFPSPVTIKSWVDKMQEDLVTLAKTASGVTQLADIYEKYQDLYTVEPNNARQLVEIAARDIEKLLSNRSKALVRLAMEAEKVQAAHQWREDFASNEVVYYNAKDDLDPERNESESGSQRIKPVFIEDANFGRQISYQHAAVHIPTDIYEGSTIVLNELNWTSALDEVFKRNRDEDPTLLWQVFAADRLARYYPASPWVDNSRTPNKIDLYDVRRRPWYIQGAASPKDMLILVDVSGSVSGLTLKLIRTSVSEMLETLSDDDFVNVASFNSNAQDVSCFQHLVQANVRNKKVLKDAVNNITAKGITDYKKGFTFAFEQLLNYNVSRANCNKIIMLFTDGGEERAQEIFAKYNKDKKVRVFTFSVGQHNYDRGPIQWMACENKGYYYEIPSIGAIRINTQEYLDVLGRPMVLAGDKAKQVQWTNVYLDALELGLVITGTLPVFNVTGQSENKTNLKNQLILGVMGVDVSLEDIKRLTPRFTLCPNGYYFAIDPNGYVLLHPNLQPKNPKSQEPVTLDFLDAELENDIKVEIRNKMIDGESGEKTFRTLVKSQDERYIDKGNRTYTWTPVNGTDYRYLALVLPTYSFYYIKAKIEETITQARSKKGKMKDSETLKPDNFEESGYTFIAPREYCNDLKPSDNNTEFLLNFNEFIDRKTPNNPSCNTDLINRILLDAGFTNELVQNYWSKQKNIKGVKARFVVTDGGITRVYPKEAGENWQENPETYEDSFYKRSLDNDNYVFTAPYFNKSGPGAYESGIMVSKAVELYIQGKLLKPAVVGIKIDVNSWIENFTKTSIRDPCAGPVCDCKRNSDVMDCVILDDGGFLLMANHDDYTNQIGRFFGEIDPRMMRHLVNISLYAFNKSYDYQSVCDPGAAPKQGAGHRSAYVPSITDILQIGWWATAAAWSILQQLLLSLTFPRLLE
Chain of calcium channel (type N) (P54290 945-1091 partner limits assumed): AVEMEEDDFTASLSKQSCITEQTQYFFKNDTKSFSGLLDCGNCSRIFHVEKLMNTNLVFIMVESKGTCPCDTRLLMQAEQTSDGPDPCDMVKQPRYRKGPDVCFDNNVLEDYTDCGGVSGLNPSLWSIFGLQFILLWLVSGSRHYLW

As for `CN(C)CCN(Cc1ccccc1)C(=O)[C@@H]1Cc2ccccc2CN1C(=O)Nc1ccc(OC(F)(F)F)cc1` [Compound 3h, 3,4-Dihydro-1H-isoquinoline-2,3-dicarboxylic acid 3-(S)-[benzyl-(2-dimethylamino-ethyl)-amide] 2-[(4-trifluoromethoxy-phenyl)-amide]], the pIC50 (in general, the IC50 on a negative log10 scale, so that one unit is a factor of ten) in test [1] was below 6.00; in test [2], below 6.00; in test [3] it was above 7.00; in test [4], below 6.00.
Take `CN(C)CCN(Cc1ccccc1)C(=O)[C@@H](NC(=O)Nc1ccc(OC(F)(F)F)cc1)C(C)(C)C` [Compound 17, N-Benzyl-N-(2-dimethylamino-ethyl)-3,3-dimethyl-2-[3-(4trifluoromethoxy-phenyl)-ureido]-butyramide]: the results for the pIC50 in test [2], in test [3] and in test [4] were below 6.00, above 7.00 and below 6.00, respectively.
For the compound `CC(C)(C)[C@H](NC(=O)Nc1cccc(C(F)(F)F)c1)C(=O)N[C@@H]1CCN(Cc2ccccc2)C1` [Compound 3a, N-(1-Benzyl-pyrrolidin-3-(R)-yl)-3,3-dimethyl-2-(S)-[3-(3-trifluoromethyl-phenyl)-ureido]-butyramide], the pIC50 in test [1] was below 6.00; in test [2], below 6.00; in test [3], above 6.00; in test [4], below 6.00.
For `CN(C)CCN(Cc1ccccc1)C(=O)[C@@H]1Cc2ccccc2CN1C(=O)Nc1cccc(C(F)(F)F)c1` [Compound 3g, 3,4-Dihydro-1H-isoquinoline-2,3-dicarboxylic acid 3-(S)-[benzyl-(2-dimethylamino-ethyl)-amide] 2-[(3-trifluoromethyl-phenyl)-amide]], the negative-log IC50 (pIC50) is below 6.00 in test [1], below 6.00 in test [2], above 7.00 in test [3] and below 6.00 in test [4].
Turning to `O=C(NC1CCN(Cc2ccccc2)CC1)[C@@H]1Cc2ccccc2CN1C(=O)Nc1cccc(C(F)(F)F)c1` [Compound 3e, 3,4-Dihydro-1H-isoquinoline-2,3-dicarboxylic acid 3-(S)-[(1-benzyl-piperidin-4-yl)-amide] 2-[(3-trifluoromethyl-phenyl)-amide]], the pIC50 in test [1] is below 6.00; in test [2], below 6.00; in test [3], above 7.00; in test [4], below 6.00.
Take `CN(C(=O)C(NC(=O)Nc1cccc(C(F)(F)F)c1)C(C)(C)C)C1CCN(Cc2ccccc2)C1` (centres unmarked) [Compound 8, N-(1-Benzyl-pyrrolidin-3-yl)-3,3,N-trimethyl-2-[3-(3-trifluoromethyl-phenyl)-ureido]-butyramide]: the negative logarithm of the IC50 (pIC50) in test [1] was below 6.00; in test [2], below 6.00; in test [3], above 7.00; in test [4] it was below 6.00.
For `CC(C)(C)[C@@H](CN[C@H](CN)Cc1ccccc1)NC(=O)Nc1cccc(C(F)(F)F)c1` [Compound 5, 1-{1-[(2-Amino-1-benzyl-ethylamino)-methyl]-2,2-dimethy-propyl}-3-(3-trifluoromethyl-phenyl)-urea], the negative-log IC50 (pIC50) is below 6.00 in test [1], below 6.00 in test [2], above 7.00 in test [3] and below 6.00 in test [4].
Turning to `CN(CC(NC(=O)Nc1ccc(OC(F)(F)F)cc1)C(C)(C)C)C1CCN(Cc2ccccc2)C1` (centres unmarked) [Compound 11, 1-(1-{[(1-Benzyl-pyrrolidin-3-yl)-methyl-amino]-methyl}-2,2-dimethyl-propyl)-3-(4-trifluoromethoxy-phenyl)-urea], the negative logarithm of the IC50 (pIC50) in test [1] is below 6.00; in test [2], below 6.00; in test [3], above 7.00; in test [4], below 6.00.
`CN(C)C[C@H](Cc1ccccc1)NC(=O)[C@@H](NC(=O)Nc1cccc(C(F)(F)F)c1)C(C)(C)C` [Compound 18, N-(1-Benzyl-2-dimethylamino-ethyl)-3,3-dimethyl-2-[3-(3-trifluoromethyl-phenyl)-ureido]-butyramide]: the pIC50 in test [1] is below 6.00; in test [2], above 7.00; in test [3], above 6.00; in test [4] it was below 6.00.
`CC(C)(C)[C@H](NC(=O)Nc1cccc(C(F)(F)F)c1)C(=O)N[C@H]1CCN(Cc2ccccc2)C1` [Compound 3b, N-(1-Benzyl-pyrrolidin-3-(S)-yl)-3,3-dimethyl-2-(S)-[3-(3-trifluoromethyl-phenyl)-ureido]-butyramide]: the pIC50 in test [1] was below 6.00; in test [2], above 6.00; in test [3] it was above 7.00; in test [4], below 6.00.
In the case of `CC(C)(C)[C@H](NC(=O)Nc1cccc(C(F)(F)F)c1)C(=O)N[C@@H](Cc1ccccc1)C(=O)N1CCNCC1` [Compound 15, N-(1-Benzyl-2-oxo-2-piperazin-1-yl-ethyl)-3,3-dimethyl-2-[3-(3-trifluoromethyl-phenyl) -ureido]-butyramide], the pIC50 in test [2], in test [3] and in test [4] was below 6.00 each time.
Regarding `CC(C)(C)[C@H](NC(=O)Nc1cc(F)ccc1F)C(=O)N[C@H]1CCN(Cc2ccccc2)C1` [Compound 3c, N-(1-Benzyl-pyrrolidin-3-(S)-yl)-2-(S)-[3-(2,5-difluoro-phenyl)-ureido]-3,3-dimethyl-butyramide], the negative logarithm of the IC50 (pIC50) in test [1] is below 6.00; in test [2] it was below 6.00; in test [3], above 6.00; in test [4], below 6.00.
In the case of `O=C(NC1CCN(Cc2ccccc2)CC1)[C@@H]1Cc2ccccc2CN1C(=O)Nc1ccc(OC(F)(F)F)cc1` [Compound 3f, 3,4Dihydro-1H-isoquinoline-2,3-dicarboxylic acid 3-(S)-[(1-benzyl-piperidin-4-yl)-amide] 2-[(4-trifluoromethoxy-phenyl)-amide]], the negative logarithm of the IC50 (pIC50) in test [1] was below 6.00; in test [2], below 6.00; in test [3], above 7.00; in test [4], below 6.00.
In the case of `CN(C(=O)C(NC(=O)Nc1ccc(OC(F)(F)F)cc1)C(C)(C)C)C1CCN(Cc2ccccc2)C1` (centres unmarked) [Compound 10, N-(1-Benzyl-pyrrolidin-3-yl)-3,3,N-trimethyl-2-[3-(4-trifluoromethoxy-phenyl)-ureido]-butyramide], the negative-log IC50 (pIC50) in test [1] is below 6.00; in test [2], below 6.00; in test [3], above 6.00; in test [4], below 6.00.
Take `CC(C)(C)[C@H](NC(=O)Nc1ccc(OC(F)(F)F)cc1)C(=O)N[C@H]1CCN(Cc2ccccc2)C1` [Compound 19, N-(1-Benzyl-pyrrolidin-3-yl)-3,3-dimethyl-2-[3-(4-trifluoromethoxy-phenyl)-ureido]-butyramide]: the pIC50 in test [2] is below 6.00; in test [3] it was above 6.00; in test [4], below 6.00.
On to `CC(C)(C)[C@H](NC(=O)Nc1cc(F)ccc1F)C(=O)N[C@@H]1CCN(Cc2ccccc2)C1` [Compound 3d, N-(1-Benzyl-pyrrolidin-3-(R)-yl)-2-(S)-[3-(2,5-difluoro-phenyl)-ureido]-3,3-dimethyl-butyramide], for which the pIC50 is below 6.00 in test [1], below 6.00 in test [2], above 6.00 in test [3] and below 6.00 in test [4].
Consider `CN(C)CCN(Cc1ccccc1)C(=O)[C@@H]1CCCN1C(=O)Nc1ccc(OC(F)(F)F)cc1` [Compound 22, Pyrrolidine-1,2-dicarboxylic acid 2-[benzyl-(2-dimethylamino-ethyl)-amide] 1-[(4-trifluoromethoxy-phenyl)-amide]], for which the pIC50 in test [3] was above 6.00; in test [4], below 6.00.
Take `CN(C)CCN(Cc1ccccc1)C(=O)[C@@H](NC(=O)Nc1cccc(C(F)(F)F)c1)C(C)(C)C` [Compound 16, N-Benzyl-N-(2-dimethylamino-ethyl)-3,3-dimethyl-2-[3-(3-trifluoromethyl-phenyl)-ureido]-butyramide]: the pIC50 in test [2] was below 6.00; in test [3], above 6.00; in test [4], below 6.00.
On to `CC(C)(C)C(NC(=O)Nc1cccc(C(F)(F)F)c1)C(=O)NC(CN)Cc1ccccc1` (centres unmarked) [Compound 4, N-(2-Amino-1-benzyl-ethyl)-3,3-dimethyl-2-[3-(3-trifluoromethyl-phenyl)ureido]-butyramide], for which the pIC50 in test [1] is below 6.00; in test [2], above 7.00; in test [3], above 7.00; in test [4], below 6.00.
Regarding `CN(CC(NC(=O)Nc1cccc(C(F)(F)F)c1)C(C)(C)C)C1CCN(Cc2ccccc2)C1` (centres unmarked) [Compound 9, 1-(1-{[(1-Benzyl-pyrrolidin-3-yl)-methyl-amino]-methyl}-2,2-dimethyl-propyl)-3-(3-trifluoromethyl-phenyl)-urea], the pIC50 in test [1] was below 6.00; in test [2], below 6.00; in test [3], above 7.00; in test [4], below 6.00.
